The subject of one series is spring barley (HORVS). The series is described as follows: Greenhouse postemergence phytotoxicity on crop, visual injury after 20-22 d. Type of series: in vivo, Hordeum vulgare. The text has this: (§1) Seeds of the desired test plant species were planted in a 90:10% v/v (volume/volume) mixture of PRO-MIX® BX (Premier Tech Horticulture, Quakertown, Pa., USA) and PROFILE® GREENS GRADE™ (Profile Products LLC, Buffalo Grove, Ill., USA) planting mixture, which typically has a pH of 5.2 to 6.2 and an organic matter content of at least 50 percent, in plastic pots with a surface area of 103.2 square centimeters (cm^2). In some aspects, to ensure good germination and healthy plants, a fungicide treatment and/or other chemical or physical treatment was applied. The plants were grown for 7-36 days (d) in a greenhouse with an approximate 14-hour (h) photoperiod which was maintained at about 23° C. during the day and 22° C. during the night. Nutrients and water were added on a regular basis and supplemental lighting was provided with overhead metal halide 1000-Watt lamps as necessary. The plants were employed for testing when they reached the second or third true leaf stage.
(§2) Emulsifiable concentrates of each of each pyridine carboxylate herbicide (Compound A or Compound B) were prepared at 100 grams acid equivalent per liter (g ae/L). The emulsifiable concentrates also included a safener, cloquintocet-mexyl, at 120 grams active ingredient per liter (g ai/L). An aliquot of each emulsifiable concentrate was placed in a 25 mL glass vial and diluted with an aqueous mixture of 1.25% (v/v) ACTIROB® B esterified rapeseed oil (Bayer Crop Science, Research Triangle Park, N.C., USA) or MSO® Concentrate with LECI-TECH® methylated soybean oil (Loveland Products, Loveland, Colo., USA) to obtain concentrated stock solutions at the highest application rate for each herbicide, based upon a 12 milliliter (mL) application volume at a rate of 187 liters per hectare (L/ha). The concentrated stock solutions were further diluted with an aqueous mixture of 1.25% v/v ACTIROB® B or MSO® Concentrate with LECI-TECH® to obtain stock solutions at reduced application rates for each herbicide. Spray solutions of the herbicide combinations (Compound A or Compound B plus PDS inhibitor herbicide) were prepared by adding weighed amounts or aliquots of the PDS inhibitor herbicide to the stock solutions of Compound A or Compound B to form 12-mL spray solutions in two- or three-way combinations.
(§3) The spray solutions were applied to the plant material with an overhead Mandel track sprayer equipped with 8002E nozzles calibrated to deliver 187 L/ha over an application area of 0.503 square meters (m^2) at a spray height of 18 inches ([…] centimeters (cm)) above the average plant canopy. Control plants were sprayed in the same manner with the solvent blank. All pyridine carboxylate herbicide (component a) application rates are given as “g ae/ha” and all PDS inhibitor herbicide (component b) application rates are given as “g ai/ha.”
(§4) The treated plants and control plants were placed in a greenhouse as described above and watered by sub-irrigation to prevent wash-off of the test compounds. After 20-22 d, the condition of the test plants as compared with that of the control plants was determined visually and scored on a scale of 0 to 100 percent where 0 corresponds to no injury and 100 corresponds to complete kill.

Series [1] concerns wild mustard (SINAR, Sinapis arvensis). As to the kind of experiment: Greenhouse postemergence herbicidal effect, visual injury after 20-22 d. The format is in vivo.
Text: as §1, §2, §3, §4

Series [2] concerns spring rape (BRSNN, Brassica napus). The description is as above. The format is in vivo.
Text: as §1, §2, §3, §4

Series [3] has as its system common lambsquarters (CHEAL, Chenopodium album L.). The description is as above. The format is in vivo.
Text: as §1, §2, §3, §4

Series [4] concerns kochia (KCHSC, Kochia scoparia). The description is as above. The format is in vivo.
Text: as §1, §2, §3, §4

Series [5] relates to wild chamomile (MATCH, Matricaria chamomilla). The series is described as above. Type of series: in vivo.
Text: as §1, §2, §3, §4

The test system of series [6] is Russian thistle (SASKR, Salsola kali). The description is as above. Type of series: in vivo.
Text: as §1, §2, §3, §4

Series [7] relates to wild buckwheat (POLCO, Polygonum convolvulus). The series is described as above. The format is in vivo.
Text: as §1, §2, §3, §4

The next series deals with spring wheat (TRZAS). The series is described as follows: Greenhouse postemergence phytotoxicity on crop, visual injury after 20-22 d. Type of series: in vivo, Triticum aestivum.
Text: as §1, §2, §3, §4

Series [8] deals with winter rape (BRSNW, Brassica napus). The series is described as follows: Greenhouse postemergence herbicidal effect, visual injury after 20-22 d. Type of series: in vivo. The conditions noted are these: 60 g/ha, Table 1.
Text: as §1, §2, §3, §4

Series [9] relates to Canada thistle (CIRAR, Cirsium arvense). The description is as above. Type of series: in vivo.
Text: as §1, §2, §3, §4

Series [10] concerns pigweed (AMARE, Amaranthus retroflexus). Described as above. The format is in vivo.
Text: as §1, §2, §3, §4

Series [11] relates to soybean (GLXMA=Glycine max). Described as above. Type of series: in vivo. The conditions noted are these: 12.5 g/ha, Table 4.
Text: as §1, §2, §3, §4

Series [12] relates to barnyardgrass (ECHCG, Echinochloa crus-galli). The series is described as above. As to conditions: 12.5 g/ha, Table 4. Type of series: in vivo.
Text: as §1, §2, §3, §4

For series [13], the system named is giant foxtail (SETFA, Setaria faberi). The description is as above. The conditions noted are these: 12.5 g/ha, Table 4. Type of series: in vivo.
Text: as §1, §2, §3, §4

Series [14] has as its system velvetleaf (ABUTH, Abutilon theophrasti). The series is described as above. Type of series: in vivo. The conditions noted are these: 12.5 g/ha, Table 4.
Text: as §1, §2, §3, §4

Series [15] has as its system Italian ryegrass (LOLMU, Lolium multiflorum.). The series is described as above. Type of series: in vivo. As to conditions: 12.5 g/ha, Table 4.
Text: as §1, §2, §3, §4

In series [16] the test system is wild pansy (VIOTR, Viola tricolor). The series is described as above. Type of series: in vivo. As to conditions: 12.5 g/ha, Table 4.
Text: as §1, §2, §3, §4

The test system of series [17] is common rice (ORYSA, Oryza sativa). The description is as above. The format is in vivo. As to conditions: 12.5 g/ha, Table 4.
Text: as §1, §2, §3, §4

Series [18] concerns broad-leaf dock (RUMOB, Rumex obtusifolius). The series is described as above. Type of series: in vivo. The conditions noted are these: 12.5 g/ha, Table 4.
Text: as §1, §2, §3, §4

Series [19] deals with ivyleaf morningglory (IPOHE, Ipomoea hederacea). Described as above. Type of series: in vivo. The conditions noted are these: 12.5 g/ha, Table 4.
Text: as §1, §2, §3, §4

Series [20] deals with large crabgrass (DIGSA, Digitaria sanguinalis). The series is described as above. Type of series: in vivo. As to conditions: 12.5 g/ha, Table 4.
Text: as §1, §2, §3, §4

Experimental findings from patent US20210392889A1, “COMPOSITIONS COMPRISING PYRIDINE CARBOXYLATE HERBICIDES WITH PDS INHIBITOR HERBICIDES” (Corteva Agriscience LLC, priority 2018, published 2021) are described below.

Turning to `CCC(Oc1ccc(F)c(C(F)(F)F)c1)C(=O)NCc1ccccc1` (stereo not shown) [Beflubutamid, 2-[4-fluoro-3-(trifluoromethyl)phenoxy]-N-(phenylmethyl)butanamide, reference compound], the “visual injury Obs” value in the series with spring barley (HORVS) (42.5 g/ha, Table 2) is on record as 18%; in [1] (42.5 g/ha, Table 2), 5%; in series [2] (42.5 g/ha, Table 2) it was 25%; in series [3] (42.5 g/ha, Table 2), 0%; in [4] (42.5 g/ha, Table 2), 0%; in series [5] (42.5 g/ha, Table 2), 0%. In addition, the “visual injury Obs” value is on record as 0% in series [6] (42.5 g/ha, Table 2); 0% in series [7] (42.5 g/ha, Table 2); 0% in the series with spring wheat (TRZAS) (42.5 g/ha, Table 2).

On to `O=C(Nc1ccc(F)cc1F)c1cccnc1Oc1cccc(C(F)(F)F)c1` [Diflufenican, N-(2,4-difluorophenyl)-2-[3-(trifluoromethyl)phenoxy]-3-pyridinecarboxamide, reference compound], for which the visual injury was found to be 13% in the series with spring barley (HORVS) (60 g/ha, Table 1); 18% in [8]; 5% in [9] (60 g/ha, Table 1); 23% in [1] (60 g/ha, Table 1); 13% in [3] (60 g/ha, Table 1); 13% in [4] (60 g/ha, Table 1). Moreover, the visual injury in series [10] (60 g/ha, Table 1) is 20%; in [5] (60 g/ha, Table 1), 0%; in [6] (60 g/ha, Table 1) it was 18%; in series [7] (60 g/ha, Table 1), 10%; in the series on spring wheat (TRZAS) (60 g/ha, Table 1), 0%.

For `Cn1cc(-c2ccccc2)c(=O)c(-c2cccc(C(F)(F)F)c2)c1` [Fluridone, 1-methyl-3-phenyl-5-[3-(trifluoromethyl)-phenyl]-4(1H)-pyridinone, reference compound], the “visual injury Obs” value in the series with spring barley (HORVS) (280 g/ha, Table 3) was 0%; in series [9] (280 g/ha, Table 3), 18%; in [1] (280 g/ha, Table 3), 45%; in series [2] (280 g/ha, Table 3) it was 18%; in [3] (280 g/ha, Table 3), 13%; in [10] (280 g/ha, Table 3), 23%. Also, the “visual injury Obs” value in series [5] (280 g/ha, Table 3) is 5%; in series [6] (280 g/ha, Table 3), 0%; in [7] (280 g/ha, Table 3), 13%; in the series with spring wheat (TRZAS) (280 g/ha, Table 3), 0%.

Regarding `O=C(Nc1ccc(F)cc1)c1cccc(Oc2cccc(C(F)(F)F)c2)n1` [Picolinafen, N-(4-fluorophenyl)-6-[3-(trifluoromethyl)phenoxy]-2-pyridinecarboxamide, reference compound], the “visual injury Obs” value amounted to 20% in series [11]; 5% in series [9] (12.5 g/ha, Table 4); 28% in [2] (12.5 g/ha, Table 4); 0% in series [12]; 20% in series [3] (12.5 g/ha, Table 4); 0% in series [13]. Besides, the “visual injury Obs” value turned out to be 15% in [14]; 0% in series [15]; 0% in series [16]; 5% in series [17]; 0% in series [18]; 5% in [19]. Further, the “visual injury Obs” value in series [20] was determined as 50%.
